The values that follow are results of earlier work, collected in patent US20250169496A1, “USE OF 2-AMINO-3-HYDROXY-3-METHYLBUTYRIC ACID AND/OR 2-AMINO-3-(4-HYDROXYPHENYL) BUTYRIC ACID” (NANJING TIANNONG BIOTECHNOLOGY CO., LTD., priority 2021, published 2025).

In the data set the test system is Lactobacihs arabinosu. The settings on record: cited from earlier work.

The structures appear in SMILES notation.

For the compound `CC(C)(O)[C@H](N)C(=O)O` [L-2-amino-3-hydroxy-3-methylbutyric acid], the “Inhibition of the synthesis of valine” value is “could inhibit the synthesis of valine”.
